Source: the supplement of paper PMC10307832

Tests used:
Assay in all cases: relative viability (nuclei count vs DMSO), 5 days (fraction); higher = more cells survive
Daporinad + Trametinib = compound: O=C(/C=C/c1cccnc1)NCCCCC1CCN(C(=O)c2ccccc2)CC1 [Daporinad] + CC(=O)Nc1cccc(-n2c(=O)n(C3CC3)c(=O)c3c(Nc4ccc(I)cc4F)n(C)c(=O)c(C)c32)c1 [Trametinib] (partner 0.02 µM)
How it was run: (§1)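 Relative viability divides the nuclei count in treated wells by that in vehicle wells. Lung cancer cell lines were seeded in 1536-well plates, dosed by pin tool the next day, and fixed and stained after 5 days in one step with final 0.05% Triton X-100, 1% formaldehyde and 1 ug/ml Hoechst. Dosing was a single drug or a fixed anchor-drug dose plus five library-drug doses (not always all listed) in √10 steps, and values are medians of duplicate plates imaged at 4×.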

R406 + Bortezomib = compound: COc1cc(Nc2ncc(F)c(Nc3ccc4c(n3)NC(=O)C(C)(C)O4)n2)cc(OC)c1OC [R406] + CC(C)C[C@H](NC(=O)[C@H](Cc1ccccc1)NC(=O)c1cnccn1)B(O)O [Bortezomib] (partner 0.002 µM)
How it was run: as §1

Daporinad + Foretinib = compound: O=C(/C=C/c1cccnc1)NCCCCC1CCN(C(=O)c2ccccc2)CC1 [Daporinad] + COc1cc2c(Oc3ccc(NC(=O)C4(C(=O)Nc5ccc(F)cc5)CC4)cc3F)ccnc2cc1OCCCN1CCOCC1 [Foretinib] (partner 0.25 µM)
How it was run: as §1

R406 + Dasatinib = compound: COc1cc(Nc2ncc(F)c(Nc3ccc4c(n3)NC(=O)C(C)(C)O4)n2)cc(OC)c1OC [R406] + Cc1nc(Nc2ncc(C(=O)Nc3c(C)cccc3Cl)s2)cc(N2CCN(CCO)CC2)n1 [Dasatinib] (partner 0.075 µM)
How it was run: as §1

Cell Line	relative viability (Daporinad + Trametinib; first compound 0.0005 µM)	relative viability (Daporinad + Trametinib; first compound 0.001581 µM)	relative viability (Daporinad + Trametinib; first compound 0.005 µM)	relative viability (Daporinad + Trametinib; first compound 0.01581 µM)	relative viability (R406 + Bortezomib; first compound 0.08 µM)	relative viability (R406 + Bortezomib; first compound 0.253 µM)	relative viability (R406 + Bortezomib; first compound 0.8 µM)	relative viability (R406 + Bortezomib; first compound 2.53 µM)	relative viability (R406 + Bortezomib; first compound 8 µM)	relative viability (Daporinad + Foretinib; first compound 0.0005 µM)	relative viability (Daporinad + Foretinib; first compound 0.001581 µM)	relative viability (Daporinad + Foretinib; first compound 0.005 µM)	relative viability (Daporinad + Foretinib; first compound 0.01581 µM)	relative viability (R406 + Dasatinib; first compound 0.08 µM)	relative viability (R406 + Dasatinib; first compound 0.253 µM)	relative viability (R406 + Dasatinib; first compound 0.8 µM)	relative viability (R406 + Dasatinib; first compound 2.53 µM)	relative viability (R406 + Dasatinib; first compound 8 µM)
NCI-H2405	0.69	0.664	0.647	0.509	1.01	1.11	1.05	0.941	0.845	1.16	1.08	1.13	1.05	0.19	0.226	0.224	0.198	0.142
LCLC-97TM1	0.188	0.158	0.189	0.177	0.718	0.659	0.793	0.489	0.207	0.832	0.929	1.08	1.03	0.83	0.863	0.793	0.722	0.602
NCI-H647	0.456	0.572	0.603	0.672	0.89	1.02	1.59	0.0846	0.188	1.32	1.18	1.06	1.28	0.168	0.161	0.251	0.108	0.0646
NCI-H838	0.496	0.637	0.542	0.265	0.709	1.46	1.01	0.11	0.153	1.06	1.11	0.965	0.567	0.25	0.287	0.52	0.204	0.219
H3255	0.557	0.637	0.645	0.71	0.852	0.912	0.686	0.865	0.457	0.709	0.688	0.672	0.992	0.33	–	0.372	0.285	0.317
NCI-H1437	0.444	0.544	0.551	0.518	0.392	0.768	0.675	0.259	0.226	1.17	1.24	1.34	1.22	0.439	0.408	0.369	0.286	0.131
LU99A	0.511	0.562	0.598	0.613	1.07	0.968	1.26	–	0.512	0.774	0.807	0.796	0.772	0.553	0.607	0.548	0.377	0.271
HCC-827	0.498	0.508	0.553	0.552	1.06	1.12	1.12	1.11	1.02	0.984	1.14	1.1	1.11	0.309	0.252	0.325	0.312	0.229
HCC-366	0.332	–	0.376	0.409	1.08	1.02	1.3	–	0.428	0.962	0.844	0.972	0.959	0.62	0.799	0.735	0.546	0.235
BEN	1.01	0.996	1.06	1.18	0.685	1.03	1.02	0.88	0.553	0.513	0.722	0.735	0.773	0.337	0.312	0.309	0.413	0.31
NCI-H23	0.395	0.382	0.412	0.342	0.953	1.45	1.35	0.906	0.278	0.898	1.02	0.991	0.611	0.7	0.878	0.902	–	0.748
201T	0.713	0.731	0.705	0.735	1.11	1.09	1.11	1.04	0.993	1.08	1.14	1.02	1.16	0.578	0.548	0.502	0.467	0.41
NCI-H520	0.639	0.721	0.185	0.136	0.604	0.804	0.971	0.209	0.157	0.815	0.384	0.324	0.181	0.209	0.235	0.223	0.198	0.189
NCI-H727	0.398	0.453	0.375	0.379	0.803	0.965	1.1	0.278	0.747	1.01	0.908	0.899	0.691	0.347	0.432	0.369	–	0.3
HCC-15	0.339	0.429	0.39	0.418	1.02	1.16	1.25	–	0.962	0.916	1.22	1.12	1.12	0.629	0.735	0.662	0.602	0.331
LCLC-103H	0.738	0.69	0.701	0.757	0.972	1.29	1.08	0.781	0.9	0.846	0.834	0.884	0.868	0.491	0.538	0.539	0.393	0.26
NCI-H460	0.0943	0.147	0.187	0.206	0.96	1.33	1.58	–	0.486	1.07	1.04	0.968	1.02	0.477	0.584	0.586	0.323	0.257
EPLC-272H	0.295	0.317	0.284	0.31	0.813	0.983	0.984	0.51	0.495	0.695	0.925	0.845	1.11	0.319	0.39	0.321	0.128	0.102
